Assay results taken from patent publication US20230012368A1 (Hoffmann-La Roche Inc., priority 2018, published 2023).
Structures can show the parent of a compound that is named as a salt.

test system: Acinetobacter baumannii ATCC 17978; assay: Antimicrobial susceptibility testing: 90% growth inhibitory concentration (IC90) determination; assay type: cell-based; conditions: 90% growth inhibitory concentration; Acinetobacter baumannii ATCC17978; Iso-Sensitest broth, OD 600 nm over 16h; read-out: ATCC17978 IC90
Method in brief: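 Growth of the Acinetobacter baumannii strain was followed by optical density at 600 nm every 20 minutes for 16h at 35±2° C. Inoculum was ~5×10^(5) CFU/ml in Iso-Sensitest medium, with twofold compound dilutions (e.g. 50 to 0.097 μM final). The 90% inhibitory concentration was derived in log-phase growth.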

Row | SMILES | IC90
1 | CCc1cc(Nc2nccn3c(-c4ccc(OC)c(F)c4F)cnc23)ccc1C(=O)N[C@@H](CN)C(=O)OC [Example 308, methyl (2S)-3-amino-2-[[4-[[3-(2,3-difluoro-4-methoxyphenyl)imidazo[1,2-a]pyrazin-8-yl]amino]-2-ethylbenzoyl]amino]propanoate; hydrochloride] | 660 nM
2 | Cc1cc(Nc2nccn3c(-c4ccc(Cl)cc4)cnc23)ccc1C(=O)N(C)CCC1CCNCC1 [Example 88, 4-((3-(4-chlorophenyl)imidazo [1,2-a]pyrazin-8-yl)amino)-N,2-dimethyl-N-(2-(piperidin-4-yl)ethyl)benzamide hydrochloride] | 250 nM
3 | CCc1cc(Nc2nccn3c(-c4ccc(OC)c(F)c4F)cnc23)ccc1C(=O)NCCCN [Example 118, N-(3-aminopropyl)-4-((3-(2,3-difluoro-4-methoxyphenyl)imidazo[1,2-a]pyrazin-8-yl)amino)-2-ethylbenzamide dihydrochloride] | 450 nM
4 | CCc1cc(Nc2nccn3c(-c4ccc(OC)c(F)c4F)cnc23)ccc1C(=O)NCC(O)CNC(=O)[C@@H](N)CCCNC(=N)N (mixture of isomers) [Example 405, rac-N-(3-((R)-2-amino-5-guanidinopentanamido)-2-hydroxypropyl)-4-((3-(2,3-difluoro-4-methoxyphenyl)imidazo[1,2-a]pyrazin-8-yl)amino)-2-ethylbenzamide diformate] | 360 nM
5 | COc1ccc(-c2cnc3c(Nc4ccc(C(=O)NCCCCN)c(Cl)c4)nccn23)c(F)c1F [Example 515, N-(4-aminobutyl)-2-chloro-4-((3-(2,3-difluoro-4-methoxyphenyl)imidazo[1,2-a]pyrazin-8-yl)amino)benzamide hydrochloride] | 42 nM

same assay, conditions: Acinetobacter baumannii, ATCC17978, 16 h, 90% growth inhibitory concentration; Acinetobacter baumannii ATCC17978; Iso-Sensitest broth, OD 600 nm over 16h; read-out: ATCC17978 IC90

Row | SMILES | IC90
6 | COc1ccc(-c2cnc3c(Nc4ccc(C(=O)NCCCN5CCN(C)C(=O)C5)c(C)c4)nccn23)c(F)c1F [Example 66, 4-((3-(2,3-difluoro-4-methoxyphenyl)imidazo [1,2-a]pyrazin-8-yl)amino)-2-methyl-N-(3-(4-methyl-3-oxopiperazin-1-yl)propyl)benzamide] | 310 nM
7 | COc1ccc(-c2cnc3c(Nc4ccc(C(=O)NCCCCN5CCOCC5)c(C)c4)nccn23)cc1F [Example 187, 4-[[3-(3-fluoro-4-methoxyphenyl)imidazo[1,2-a]pyrazin-8-yl]amino]-2-methyl-N-(4-morpholin-4-ylbutyl)benzamide] | 270 nM
8 | COc1ccc(-c2cnc3c(Nc4ccc(C(=O)NCC5CCOC5)c(C)c4)nccn23)cc1F (stereo not shown) [Example 70, 4-((3-(3-fluoro-4-methoxyphenyl)imidazo [1,2-a]pyrazin-8-yl)amino)-2-methyl-N-((tetrahydrofuran-3-yl)methyl)benzamide] | 700 nM
9 | CCc1cc(Nc2nccn3c(-c4ccc(Oc5ccncn5)c(F)c4F)cnc23)ccc1C(=O)NCCNC(=O)[C@H](N)CCNC(=N)N [Example 441, N-[2-[[(2R)-2-amino-4-guanidino-butanoyl]amino]ethyl]-4-[[3-(2,3-difluoro-4-pyrimidin-4-yloxy-phenyl)imidazo[1,2-a]pyrazin-8-yl]amino]-2-ethyl-benzamide; formic acid] | 460 nM
10 | COc1ccc(-c2cnc3c(Nc4ccc(C(=O)NCC5CNCCN5)c(C)c4)nccn23)cc1F (stereo not shown) [Example 246, 4-[[3-(3-fluoro-4-methoxyphenyl)imidazo[1,2-a]pyrazin-8-yl]amino]-2-methyl-N-(piperazin-2-ylmethyl)benzamide;hydrochlo-ride] | 2200 nM
11 | Cc1cc(Nc2nccn3c(-c4ccc(Cl)cc4)cnc23)ccc1C(=O)NCCC1CCNCC1 [Example 189, 4-[[3-(4-chlorophenyl)imidazo[1,2-a]pyrazin-8-yl]amino]-2-methyl-N-(2-piperidin-4-ylethyl)benzamide;hydrochlo-ride] | 280 nM
12 | CC(=O)N1CCC(CCN(C)C(=O)c2ccc(Nc3nccn4c(-c5ccc(OC(F)F)cc5)cnc34)cc2C)CC1 [Example 204, N-[2-(1-acetylpiperidin-4-yl)ethyl]-4-[[3-[4-(difluoromethoxy)phenyl]im-idazo[1,2-a]pyrazin-8-yl]amino]-N,2-dimethylbenzamide] | 530 nM
13 | CCc1cc(Nc2nccn3c(-c4ccc(OC)c(F)c4F)cnc23)ccc1C(=O)NC(C)(C)CN [Example 99, N-(1-amino-2-methylpropan-2-yl)-4-((3-(2,3-difluoro-4-methoxyphenyl)imidazo [1,2-a]pyrazin-8-yl)amino)-2-ethylbenzamide hydrochloride] | 350 nM
14 | CCN(CC)C(=O)c1ccc(Nc2nccn3c(-c4ccc(OC)cc4)cnc23)cc1C [Example 220, N,N-diethyl-4-[[3-(4-methoxyphenyl)imidazo[1,2-a]pyrazin-8-yl]amino]-2-methylbenzamide] | 1200 nM
15 | CCc1cc(Nc2nccn3c(-c4ccc(OC(F)F)c(F)c4F)cnc23)ccc1C(=O)NCC1(CO)COC(=O)N1 (stereo not shown) [Example 409, 4-((3-(4-(difluoromethoxy)-2,3-difluorophenyl)imidazo[1,2-a]pyrazin-8-yl)amino)-2-ethyl-N-((4-(hydroxymethyl)-2-oxooxazolidin-4-yl)methyl)benzamide] | 450 nM
16 | COc1ccc(-c2cnc3c(Nc4ccc(C(=O)NCCNC(=O)N5CCN[C@@H](C(=O)O)C5)c(C)c4)nccn23)c(F)c1F [Example 352, (2R)-4-[2-[[4-[[3-(2,3-difluoro-4-methoxyphenyl)imidazo[1,2-a]pyrazin-8-yl]amino]-2-methylbenzoyl]amino]ethyl-carbamoyl]piperazine-2-carboxylic acid;formic acid] | 1300 nM
17 | COc1ccc(-c2cnc3c(Nc4ccc5c(c4)CCCNC5=O)nccn23)cc1F [Example 390, 7-[[3-(3-fluoro-4-methoxy-phenyl)imidazo[1,2-a]pyrazin-8-yl]amino]-2,3,4,5-tetrahydro-2-benzazepin-1-one hydrochloride] | 220 nM
18 | CCc1cc(Nc2nccn3c(-c4ccc(OC)c(F)c4F)cnc23)ccc1C(=O)NCCCCCCN1CCCCC1 [Example 534, 4-((3-(2,3-difluoro-4-methoxyphenyl)imidazo[1,2-a]pyrazin-8-yl)amino)-2-ethyl-N-(6-(piperidin-1-yl)hexyl)benzamide] | 41 nM
19 | CCc1cc(Nc2nccn3c(-c4ccc(OC)c(F)c4F)cnc23)ccc1C(=O)NCCC1CCN(CCC(=O)O)CC1 [Example 301, 3-[4-[2-[[4-[[3-(2,3-difluoro-4-methoxyphenyl)imidazo[1,2-a]pyrazin-8-yl]amino]-2-ethylbenzoyl]amino]ethyl]piperidin-1-yl]propanoic acid] | 270 nM
20 | CCc1cc(Nc2nccn3c(-c4ccc(OC)c(F)c4F)cnc23)ccc1C(=O)NCCNC(=O)[C@@H](N)[C@@H](C)O [Example 393, N-[2-[[(2S,3R)-2-amino-3-hydroxy-butanoyl]amino]ethyl]-4-[[3-(2,3-difluoro-4-methoxy-phenyl)imidazo[1,2-a]pyrazin-8-yl]amino]-2-ethyl-benzamide; formic acid] | 260 nM
21 | Cc1cc(Nc2nccn3c(-c4ccc(OC(F)F)cc4)cnc23)ccc1C(=O)NCCN1CCNC(=O)C1 [Example 221, 4-[[3-[4-(difluoromethoxy)phenyl]im-idazo[1,2-a]pyrazin-8-yl]amino]-2-methyl-N-[2-(3-oxopiperazin-1-yl)ethyl]benzamide] | 1100 nM
22 | CC[C@@]1(O)CN[C@H](C(=O)NCCNC(=O)c2ccc(Nc3nccn4c(-c5ccc(OC)c(F)c5F)cnc34)cc2C)C1 [Example 371, (2S,4S)-N-[2-[[4-[[3-(2,3-difluoro-4-methoxyphenyl)imidazo[1,2-a]pyrazin-8-yl]amino]-2-methylbenzoyl]amino]ethyl]-4-ethyl-4-hydroxypyrrolidine-2-carboxamide] | 150 nM
23 | CCc1cc(Nc2nccn3c(-c4ccc(OC)c(F)c4F)cnc23)ccc1C(=O)NCCC(=O)N1CCN[C@H](CO)C1 [Example 160, 4-[[3-(2,3-difluoro-4-methoxy-phenyl)imidazo[1,2-a]pyrazin-8-yl]amino]-2-ethyl-N-[3-[(3S)-3-(hydroxymethyl)piperazin-1-yl]-3-oxo-propyl]benzamide] | 150 nM
24 | CCc1cc(Nc2nccn3c(-c4ccc(Oc5ncccn5)c(F)c4F)cnc23)ccc1C(=O)NCCNC(=O)CCN [Example 431, N-[2-(3-aminopropanoylamino)ethyl]-4-[[3-(2,3-difluoro-4-pyrimidin-2-yloxy-phenyl)imidazo[1,2-a]pyrazin-8-yl]amino]-2-ethyl-benzamide; formic acid] | 530 nM
25 | CNC(=O)c1ccc(Nc2nccn3c(-c4ccc(OC(F)F)cc4)cnc23)cc1C [Example 26] | 170 nM
26 | CCc1cc(Nc2nccn3c(-c4ccc(Oc5ccccn5)c(F)c4F)cnc23)ccc1C(=O)N[C@@H](C)CNC(=O)[C@@H](N)CCNC(=N)N [Example 456, N-[(1S)-2-[[(2S)-2-amino-4-guanidino-butanoyl]amino]-1-methyl-ethyl]-4-[[3-[2,3-difluoro-4-(2-pyridyloxy)phenyl]imidazo [1,2-a]pyrazin-8-yl]amino]-2-ethyl-benzamide; formic acid] | 710 nM
27 | CCc1cc(Nc2nccn3c(-c4ccc(OC)c(F)c4F)cnc23)ccc1C(=O)N[C@@H](CC)CN [Example 489, N-[(1S)-1-(aminomethyl)propyl]-4-[[3-(2,3-difluoro-4-methoxy-phenyl)imidazo[1,2-a]pyrazin-8-yl]amino]-2-ethyl-benzamide; formic acid] | 500 nM
28 | CCc1cc(Nc2nccn3c(-c4ccc(OC)c(F)c4F)cnc23)ccc1C(=O)NCC1CCN(C(=O)C2CCNCC2)CC1 [Example 546, 4-((3-(2,3-difluoro-4-methoxyphenyl)imidazo[1,2-a]pyrazin-8-yl)amino)-2-ethyl-N-((1-(piperidine-4-carbonyl)piperidin-4-yl)methyl)benzamide 2,2,2-trifluoroacetate] | 70 nM
